Laboratory results as given in US20240191244A1 (priority 2020, published 2024).

System: wild-type HN08 strain
Format: cell-based, C. siamense

In the case of N#Cc1c[nH]cc1-c1cccc2c1OC(F)(F)O2 [fludioxonil], the strain growth rate is reported as “gradually decreases”.
